The record followed here is publication PMC6452685, “Lysyl-tRNA synthetase as a drug target in malaria and cryptosporidiosis” (Proceedings of the National Academy of Sciences of the …, 2019).

In data set [1] the test system is P. vivax liver schizonts/hypnozoites. As to the kind of experiment: P. vivax liver schizonts/hypnozoites (prophylactic mode). Conditions: Plasmodium vivax. It is filed as cell-based. The method, then: Thi s i s bas ed on met hods prev i ous l y report ed (12 ). In bri ef, HepG 2-A1 6-CD81EGFP cel l s were cul tured at 3 7 °C i n 5% C O2 in DMEM me dia. For both P. berghei-Luc and HepG2 cytotoxi ci ty assays, 3x 10**3 of the HepG2-A16-CD81EGFP20 cells in 5 µl of assay medi um (DMEM wi thout Phenol Red (Li fe Techn ol ogi es, CA), 5% FBS, and 5x Pen Stre p Gl utami ne (Li fe Techn ol ogi es, CA)) at concentrati o n 6x 10**5 cel l s /ml were s eeded i n white s oli d bottom 153 6-well pl at es (cus t om G NF mol d ref# 7891 73-F, Grei ner Bi o-One), 2 0-26 h prior to sporozoites infection. […]
pri or t o i nfect i on 5 0 nl of comp ounds i n 1:3 s eri al di l ut i ons in DMSO (0. 5% fi nal DMSO concentrati on per w el l ) w ere t rans ferred w i t h an Acous ti c Trans fer Sy s t em (ATS) (Bi os ero) t o the cells. Atovaquone (5µ M) and pu romy ci n (1 0 µM) at a single concentration were used as pos i t i v e cont rol s for the Pbluc and He pG 2tox , res pecti v el y . 0. 5% DMSO was us ed as neg ati v e control for both as s ay s . […]
[…] Immediately after addition of the luminescence reagent, the luminescence was measured by the Env i s i on M ul t il abel Reader (Perk i nEl mer). […]
Thi s is a modification of the previously reported method (13). […]

A further data set is described as follows: FaSSIF solubility. It counts as physicochemical. The conditions noted are these: 37 °C, thermodynamic from solid; FaSSIF pH 6.5. The protocol:
4.1 Aque ous s olubilit y
Compounds were subject to serial dilution from 10 mM to 0.47 mM in DMSO. An al i quot was then mi xed wi th Mi l li Q water to obtai n a n aq ueous di l uti on pl ate wi th a fi na l concentrati on rang e of 250 - 13 µM, with a final DMSO concentration of 2. 5 % (v /v ). Triplicate al i quots were transferred to a fl at bottomed pol ystyrene pl ate whi ch was i mmedi ately read o n the NEPHELOstar (BMG Lab Techn ol ogi es). […]
Drug dissolution in biorelevant media which simulates the liquid environment within the upper […]
into the blood stream and is more a more accurate determination of oral d os e s ol ubi li t y t han si mple aqueous sol ubi l i ty performed at neutral pH and wi thout any associ ated bil e aci ds and fats. This method i s based on that of Fagerberg et al. (16) where the FaSSIF has pH 6.5 a nd c ontains 3 mM sodium taurocholate and 0.7 5 mM lectithin. FaSSIF blank only has pH 6.5 and is devoid of salts and […]
[…] The sampl e i s then centri fuged at 10,00 0 rpm for 3 mi n befo re th e supernatant i s subject to HPLC analysis at 254 nm UV detecti on wavel ength. Typi call y, 10 µ l supernatant injections are suffi ci ent to achi eve peak areas whi ch fal l wi thi n the 6 p oi nt standar d curv e of anal y te concentrati ons i njected onto the col umn, al thoug h thi s may be i ncreas ed up to 40 µl for more insoluble compounds where necessary. […]

Values after ≈ are worked out from the molar mass of the structure shown. Read-outs that look alike come from different tables or passages of the source.

As usually defined, the EC50 is the concentration giving half of the maximal effect. A word on the solubility: it is the dissolved amount per volume that the medium holds. `O=C(NCC1(O)CCC(F)(F)CC1)c1cc(=O)c2cc(F)ccc2o1` [Compound 5]: the EC50 was > 10 µM in data set [1] (hypnozoites, read-out: P. vivax hypnozoites EC50 (prophylactic mode)) and 0.95 µM in data set [1] (liver schizonts, read-out: P. vivax liver schizonts EC50 (prophylactic mode)). In “FaSSIF solubility”, this compound returned a solubility at 5 h of 255 µM (≈ 90.6 µg/mL).
